{
  "source": "paper PMC11769286",
  "about": "“Nanoformulation of Polymyxin E Through Complex Coacervation: A Pharmacokinetic Analysis” (Pharmaceutics, 2025)",
  "key": {"Acinetobacter baumannii": {"system": "Acinetobacter baumannii", "assay_type": "cell-based", "from_the_text": "(§1) In line with the 2021 edition of the United States Clinical and Laboratory Standards Institute (CLSI) guidelines (https://clsi.org/), we employed the broth microdilution method to determine the MIC of the compounds against clinical Gram-negative bacilli. We tested 23 strains of Escherichia coli, including 12 carbapenem-sensitive and 11 drug-resistant strains, and 22 strains of Klebsiella pneumoniae, including 12 carbapenem-sensitive and 10 drug-resistant strains. Additionally, we assessed 20 strains of Acinetobacter baumannii, again including 10 carbapenem-sensitive and 10 drug-resistant strains, and 21 strains of Pseudomonas aeruginosa. Quality control strains used were Escherichia coli ATCC 25922 and Pseudomonas aeruginosa ATCC 27853 [20]. For the preparation of antimicrobial agents, we dissolved seven batches of the test drug in 3 mL of water and subsequently diluted it to a concentration of 500 mg/L. The control drug was prepared according to CLSI requirements. The antibacterial solutions were tested over a concentration range spanning from 0.015 mg/L to 32 mg/L. We utilized cation-adjusted Mueller–Hinton broth (CAMHB) from BD Company, with lot number 9324795.\n(§2) Regarding bacterial inoculation, we selected fresh, pure bacterial colonies from Columbia blood agar using the direct colony suspension method, resulting in a turbidity of 0.5 McFarland units. This suspension was then appropriately diluted, yielding a final bacterial concentration of 10^5 CFU/mL. Culturing conditions involved incubation in ambient air at 35 ± 2 °C for a duration of 16–20 h. Results were interpreted in accordance with the European EUCAST breakpoint criteria, where PME sensitivity was defined as ≤2 mg/L and resistance as ≥4 mg/L. Criteria for assessing other tested drugs were provided by the party commissioning the study. The MIC value represented the minimum drug concentration necessary to inhibit bacterial growth. Data analysis was performed using WHONET 5.6 software for statistical evaluation of the drug susceptibility test results."}, "Klebsiella pneumoniae": {"system": "Klebsiella pneumoniae", "assay_type": "cell-based", "from_the_text": "as §1, §2"}, "CD-1 mice": {"system": "CD-1 mice", "assay": "Determination of maximum tolerated dose (MTD)", "assay_type": "in vivo", "settings": "male CD-1 mice, n = 3, tail vein, BID (q8h)", "description": "CD-1 mice, male, 7–8 weeks old, weighing 25–30 g, were purchased from Shanghai Lingchang Laboratory Animal Co. The mice were grouped into n = 3, and different doses of PME were injected into the tail vein of mice via BID (q8h). HA2 prescription (HA2-2.6, HA2-2 and HA2-1.5) and SOP prescription (SOP-2.6, SOP-2 and SOP-1.5) were used for MTD examination."}, "[1]": {"set-up": "species or system SD rats", "settings": "rat, in vivo, iv"}, "[2]": {"system": "A. Baumannii ATCC BAA-1605", "settings": "8 mpk BID q12h, tail vein; 24 h after infection", "quoted_text": "CD-1 mice (SPF grade, female, 7 weeks old, 27–29 g) were provided by Zhejiang Weitong Lihua Laboratory Animal Technology Co., Ltd. A. Baumannii ATCC BAA-1605 was provided by Nantong Wuxi Apptec Medical Technology Co., Ltd. (Nanjing, China). Experimental animals were admitted to Wuxi AppTec BSL-2 animal facility and subjected to an adaptation period of at least 3 to 4 days. Immunosuppressed mice with neutrophil deficiency were prepared by intraperitoneal injection of cyclophosphamide (150 mg/kg at day -4; 100 mg/kg at day -1). On day 0, the infected bacterial solution was inoculated by intramuscular injection, and 0.1 mL of the bacterial solution was inoculated into the right thigh of each mouse. At 2 h and 24 h after infection, the PME formulations were administered by tail vein according to the experimental protocol. Animals in the blank group were euthanized 2 h after infection. The right thighs of those mice were collected and homogenized. The diluent was cultured overnight and CFUs were counted the next day. Animals in the negative control group and other treatment groups were euthanized 24 h after infection. […] The diluent was cultured overnight and CFUs were counted the next day. […]\nThe dosages were calculated based on the weight of the mice, and different dosage levels were achieved by adjusting the drug volume accordingly."}, "[3]": {"settings": "rat, in vivo"}, "in vivo": {"assay": "in vivo", "settings": "SD, rat"}},
  "note": "Positions of bridges follow the written chain, without caps; N, C: chain ends. Non-standard residues stand in square brackets, D forms with d. Residues, ends and D or L forms follow the SMILES beside them. *: point of attachment. Heptanoyl(5-Me) = CCC(C)CCCC(=O)*; Dab = NCC[C@H](N)C(=O)O",
  "data": [
    {"smiles": "CCC(C)CCCC(=O)N[C@@H](CCN)C(=O)N[C@H](C(=O)N[C@@H](CCN)C(=O)N[C@H]1CCNC(=O)[C@H]([C@@H](C)O)NC(=O)[C@H](CCN)NC(=O)[C@H](CCN)NC(=O)[C@H](CC(C)C)NC(=O)[C@@H](CC(C)C)NC(=O)[C@H](CCN)NC1=O)[C@@H](C)O", "note": "(stereo partly drawn) ({Heptanoyl(5-Me)}-[Dab]T[Dab][Dab][Dab][dL]L[Dab][Dab]T; lactam 4-C)", "values": [
      {"measurement": "MIC50", "setting": "Acinetobacter baumannii", "value": 0.5, "unit": "µg/mL"},
      {"measurement": "MIC range", "setting": "Acinetobacter baumannii", "value": "0.5 to 1", "unit": "µg/mL"},
      {"measurement": "MIC50", "setting": "Klebsiella pneumoniae", "value": 0.5, "unit": "µg/mL"},
      {"measurement": "MTD / tolerated dose", "setting": "CD-1 mice", "value": 10, "unit": "mpk"},
      {"measurement": "gastric mucosal bleeding", "setting": "[1]", "value": "showed gastric mucosal bleeding"},
      {"measurement": "change of bacterial levels", "setting": "[2]", "value": "did not increase bacterial levels"},
      {"measurement": "intersection point between distribution phase and elimination phase", "setting": "[3]", "value": 0.5, "unit": "h"},
      {"measurement": "AUC(0-inf)", "setting": "in vivo", "value": "12300 ± 2120", "unit": "ng·h/mL"},
      {"measurement": "Cmax", "setting": "in vivo", "value": "10300 ± 1780", "unit": "ng/mL"},
      {"measurement": "MRT", "setting": "in vivo", "value": "1.63 ± 0.15", "unit": "h"},
      {"measurement": "Tmax", "setting": "in vivo", "value": 4.8, "unit": "min"},
      {"measurement": "Vd", "setting": "in vivo", "value": "0.404 ± 0.0545", "unit": "L/kg"},
      {"measurement": "clearance", "setting": "in vivo", "value": "4.16 ± 0.78", "unit": "mL/min/kg"},
      {"measurement": "half-life", "setting": "in vivo", "value": "1.33 ± 0.05", "unit": "h"}
    ]}
  ]
}
